Measurements: ChEMBL document CHEMBL3991601, “The target landscape of clinical kinase drugs” (Science, 2017)
Calls of active or inactive are those of the source. Cut-off read from the data, not from the text of the source, for most assays here: actives have a measured Kd and inactives only a lower limit.

Experiments:
[1] = target: Inosine-5'-monophosphate dehydrogenase 2 (Homo sapiens, UniProt P12268)
[2] = target: Receptor-interacting serine/threonine-protein kinase 2 (Homo sapiens, UniProt O43353)
Sequence of Receptor-interacting serine/threonine-protein kinase 2 (O43353 whole entry, canonical isoform): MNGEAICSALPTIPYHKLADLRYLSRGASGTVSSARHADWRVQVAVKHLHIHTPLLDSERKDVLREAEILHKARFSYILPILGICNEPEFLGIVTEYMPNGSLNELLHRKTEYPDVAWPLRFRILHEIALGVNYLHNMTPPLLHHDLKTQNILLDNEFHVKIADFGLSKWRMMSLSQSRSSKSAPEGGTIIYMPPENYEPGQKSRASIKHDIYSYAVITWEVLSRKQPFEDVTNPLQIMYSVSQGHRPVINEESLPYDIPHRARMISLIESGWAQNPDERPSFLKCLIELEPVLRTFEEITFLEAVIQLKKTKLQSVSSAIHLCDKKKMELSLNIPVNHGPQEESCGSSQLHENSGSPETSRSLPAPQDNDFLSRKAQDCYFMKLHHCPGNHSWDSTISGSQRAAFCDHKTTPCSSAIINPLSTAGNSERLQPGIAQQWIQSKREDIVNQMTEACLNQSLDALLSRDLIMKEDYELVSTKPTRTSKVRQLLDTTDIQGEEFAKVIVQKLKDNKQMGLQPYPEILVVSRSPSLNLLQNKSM

[3] = target: Casein kinase I isoform delta (Homo sapiens, UniProt P48730)
Sequence of Casein kinase I isoform delta (P48730 whole entry, canonical isoform): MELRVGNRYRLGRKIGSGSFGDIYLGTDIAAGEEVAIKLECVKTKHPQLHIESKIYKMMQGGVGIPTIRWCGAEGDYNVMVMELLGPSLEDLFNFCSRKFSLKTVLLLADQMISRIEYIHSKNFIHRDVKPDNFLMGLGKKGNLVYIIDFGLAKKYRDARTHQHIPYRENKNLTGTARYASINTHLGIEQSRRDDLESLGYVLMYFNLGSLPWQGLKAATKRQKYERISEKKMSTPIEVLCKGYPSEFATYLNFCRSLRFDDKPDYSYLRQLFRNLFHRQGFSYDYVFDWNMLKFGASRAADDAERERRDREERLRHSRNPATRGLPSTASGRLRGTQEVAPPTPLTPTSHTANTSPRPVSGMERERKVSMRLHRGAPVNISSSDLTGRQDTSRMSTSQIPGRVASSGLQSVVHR

[4] = target: Casein kinase I isoform gamma-1 (Homo sapiens, UniProt Q9HCP0)
[5] = target: Putative heat shock protein HSP 90-beta 2 (Homo sapiens, UniProt Q58FF8)
Sequence of Putative heat shock protein HSP 90-beta 2 (Q58FF8 whole entry): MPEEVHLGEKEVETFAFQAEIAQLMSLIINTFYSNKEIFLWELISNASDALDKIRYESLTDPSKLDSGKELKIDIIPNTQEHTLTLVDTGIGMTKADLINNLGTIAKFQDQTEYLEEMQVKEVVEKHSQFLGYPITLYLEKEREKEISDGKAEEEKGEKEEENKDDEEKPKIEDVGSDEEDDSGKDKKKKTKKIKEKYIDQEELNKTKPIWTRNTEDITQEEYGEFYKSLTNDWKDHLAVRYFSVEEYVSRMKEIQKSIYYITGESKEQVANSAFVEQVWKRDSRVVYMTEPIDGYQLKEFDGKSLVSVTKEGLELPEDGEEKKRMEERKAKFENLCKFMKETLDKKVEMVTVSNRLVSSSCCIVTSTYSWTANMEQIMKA

[6] = target: Ribosomal protein S6 kinase alpha-4 (Homo sapiens, UniProt O75676)
[7] = target: Ribosomal protein S6 kinase beta-1 (Homo sapiens, UniProt P23443)
Sequence of Ribosomal protein S6 kinase beta-1 (P23443 whole entry): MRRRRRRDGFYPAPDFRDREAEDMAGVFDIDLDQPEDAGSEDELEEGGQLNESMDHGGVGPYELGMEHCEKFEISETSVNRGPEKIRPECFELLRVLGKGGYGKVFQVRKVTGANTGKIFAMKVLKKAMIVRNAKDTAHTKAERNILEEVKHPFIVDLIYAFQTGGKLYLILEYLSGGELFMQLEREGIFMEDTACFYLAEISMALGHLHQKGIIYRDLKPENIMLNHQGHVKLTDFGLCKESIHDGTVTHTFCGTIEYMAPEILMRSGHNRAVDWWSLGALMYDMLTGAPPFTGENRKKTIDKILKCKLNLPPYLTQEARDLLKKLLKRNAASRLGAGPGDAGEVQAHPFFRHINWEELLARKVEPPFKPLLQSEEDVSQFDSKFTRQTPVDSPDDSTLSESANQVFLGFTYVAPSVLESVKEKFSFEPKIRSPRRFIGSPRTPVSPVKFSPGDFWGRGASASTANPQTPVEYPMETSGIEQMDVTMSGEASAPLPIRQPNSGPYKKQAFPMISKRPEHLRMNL

[8] = target: Non-receptor tyrosine-protein kinase TYK2 (Homo sapiens, UniProt P29597)
[9] = target: Cyclin-dependent kinase 7 (Homo sapiens, UniProt P50613)
Deoxycytidine kinase = Deoxycytidine kinase (Homo sapiens, UniProt P27707)
[10] = target: Mitogen-activated protein kinase kinase kinase kinase 5 (Homo sapiens, UniProt Q9Y4K4)
[11] = target: Protein kinase C theta type (Homo sapiens, UniProt Q04759)
[12] = target: Tyrosine-protein kinase CSK (Homo sapiens, UniProt P41240)
[13] = target: TRAF2 and NCK-interacting protein kinase (Homo sapiens, UniProt Q9UKE5)
[14] = target: Tyrosine-protein kinase ABL2 (Homo sapiens, UniProt P42684)
Sequence of Tyrosine-protein kinase ABL2 (P42684 whole entry): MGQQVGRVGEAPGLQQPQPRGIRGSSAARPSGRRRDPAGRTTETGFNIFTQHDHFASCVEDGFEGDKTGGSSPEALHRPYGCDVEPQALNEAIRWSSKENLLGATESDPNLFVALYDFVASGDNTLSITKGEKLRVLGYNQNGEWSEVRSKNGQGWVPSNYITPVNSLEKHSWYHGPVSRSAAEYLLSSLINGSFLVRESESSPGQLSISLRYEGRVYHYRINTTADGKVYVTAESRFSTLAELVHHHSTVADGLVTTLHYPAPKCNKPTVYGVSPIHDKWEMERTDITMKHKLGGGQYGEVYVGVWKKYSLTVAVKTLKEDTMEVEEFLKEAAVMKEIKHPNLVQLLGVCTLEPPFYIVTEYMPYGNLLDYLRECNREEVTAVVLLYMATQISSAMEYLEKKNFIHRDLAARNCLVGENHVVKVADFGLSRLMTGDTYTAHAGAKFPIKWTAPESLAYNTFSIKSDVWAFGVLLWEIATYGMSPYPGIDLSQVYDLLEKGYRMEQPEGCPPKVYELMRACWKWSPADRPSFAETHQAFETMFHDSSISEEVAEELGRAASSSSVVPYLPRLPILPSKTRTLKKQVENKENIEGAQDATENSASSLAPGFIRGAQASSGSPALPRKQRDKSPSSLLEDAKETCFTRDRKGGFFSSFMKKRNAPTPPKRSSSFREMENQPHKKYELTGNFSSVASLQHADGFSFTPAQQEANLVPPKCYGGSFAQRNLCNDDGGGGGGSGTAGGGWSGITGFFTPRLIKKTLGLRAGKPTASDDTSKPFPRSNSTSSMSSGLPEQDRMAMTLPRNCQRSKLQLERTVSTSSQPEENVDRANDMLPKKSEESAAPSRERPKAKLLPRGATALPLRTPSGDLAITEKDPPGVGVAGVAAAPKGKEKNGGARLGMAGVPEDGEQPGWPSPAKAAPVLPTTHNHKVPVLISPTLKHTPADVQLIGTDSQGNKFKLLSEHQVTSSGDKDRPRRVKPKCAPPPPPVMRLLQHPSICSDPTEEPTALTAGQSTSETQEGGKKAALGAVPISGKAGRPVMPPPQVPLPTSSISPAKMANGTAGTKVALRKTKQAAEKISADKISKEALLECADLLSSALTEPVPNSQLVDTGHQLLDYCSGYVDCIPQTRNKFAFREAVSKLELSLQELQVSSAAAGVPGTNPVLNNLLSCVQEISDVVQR

[15] = target: T1, Mitogen-activated protein kinase 15 (Homo sapiens, UniProt Q8TD08)
T1 sequence (Q8TD08 whole entry): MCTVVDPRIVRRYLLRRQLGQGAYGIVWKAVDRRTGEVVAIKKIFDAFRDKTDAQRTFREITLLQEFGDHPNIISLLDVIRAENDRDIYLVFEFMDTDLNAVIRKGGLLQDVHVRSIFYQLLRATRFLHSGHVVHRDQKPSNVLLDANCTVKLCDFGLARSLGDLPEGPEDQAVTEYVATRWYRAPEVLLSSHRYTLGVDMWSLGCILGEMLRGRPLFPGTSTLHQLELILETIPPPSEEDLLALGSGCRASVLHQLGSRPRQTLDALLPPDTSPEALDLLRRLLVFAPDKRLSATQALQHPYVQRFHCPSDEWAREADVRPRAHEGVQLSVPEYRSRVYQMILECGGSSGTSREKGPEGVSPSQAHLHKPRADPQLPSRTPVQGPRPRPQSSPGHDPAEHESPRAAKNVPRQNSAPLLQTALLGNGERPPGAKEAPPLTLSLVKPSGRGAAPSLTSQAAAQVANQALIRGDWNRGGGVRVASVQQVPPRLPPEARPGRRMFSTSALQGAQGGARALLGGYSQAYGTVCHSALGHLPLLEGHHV

[16] = target: S-adenosylmethionine synthase isoform type-2 (Homo sapiens, UniProt P31153)
[17] = target: Fibroblast growth factor receptor 1 (Homo sapiens, UniProt P11362)
Sequence of Fibroblast growth factor receptor 1 (P11362 whole entry): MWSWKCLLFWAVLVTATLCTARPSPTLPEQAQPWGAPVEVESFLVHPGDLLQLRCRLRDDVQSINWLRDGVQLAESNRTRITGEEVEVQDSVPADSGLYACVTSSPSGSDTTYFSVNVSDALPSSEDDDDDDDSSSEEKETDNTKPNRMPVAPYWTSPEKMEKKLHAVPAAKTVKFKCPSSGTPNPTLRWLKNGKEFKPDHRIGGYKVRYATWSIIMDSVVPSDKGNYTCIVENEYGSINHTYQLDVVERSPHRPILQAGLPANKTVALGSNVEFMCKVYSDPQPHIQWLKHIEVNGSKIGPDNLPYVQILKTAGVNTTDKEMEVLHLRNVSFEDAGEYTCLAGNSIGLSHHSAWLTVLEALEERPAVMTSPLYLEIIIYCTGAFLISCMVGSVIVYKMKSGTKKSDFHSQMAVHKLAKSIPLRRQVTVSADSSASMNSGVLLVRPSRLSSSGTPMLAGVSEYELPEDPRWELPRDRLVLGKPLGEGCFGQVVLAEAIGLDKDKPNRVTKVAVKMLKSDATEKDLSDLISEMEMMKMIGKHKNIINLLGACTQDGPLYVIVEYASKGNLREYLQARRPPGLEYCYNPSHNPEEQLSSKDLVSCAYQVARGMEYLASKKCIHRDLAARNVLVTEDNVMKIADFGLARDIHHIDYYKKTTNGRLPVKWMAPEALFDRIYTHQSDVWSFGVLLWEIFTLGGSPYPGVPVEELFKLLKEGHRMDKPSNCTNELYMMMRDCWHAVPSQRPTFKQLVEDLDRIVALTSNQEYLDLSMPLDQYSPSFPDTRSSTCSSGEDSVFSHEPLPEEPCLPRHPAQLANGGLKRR

[18] = target: T2, NUAK family SNF1-like kinase 2 (Homo sapiens, UniProt Q9H093)
T2 sequence (Q9H093 whole entry): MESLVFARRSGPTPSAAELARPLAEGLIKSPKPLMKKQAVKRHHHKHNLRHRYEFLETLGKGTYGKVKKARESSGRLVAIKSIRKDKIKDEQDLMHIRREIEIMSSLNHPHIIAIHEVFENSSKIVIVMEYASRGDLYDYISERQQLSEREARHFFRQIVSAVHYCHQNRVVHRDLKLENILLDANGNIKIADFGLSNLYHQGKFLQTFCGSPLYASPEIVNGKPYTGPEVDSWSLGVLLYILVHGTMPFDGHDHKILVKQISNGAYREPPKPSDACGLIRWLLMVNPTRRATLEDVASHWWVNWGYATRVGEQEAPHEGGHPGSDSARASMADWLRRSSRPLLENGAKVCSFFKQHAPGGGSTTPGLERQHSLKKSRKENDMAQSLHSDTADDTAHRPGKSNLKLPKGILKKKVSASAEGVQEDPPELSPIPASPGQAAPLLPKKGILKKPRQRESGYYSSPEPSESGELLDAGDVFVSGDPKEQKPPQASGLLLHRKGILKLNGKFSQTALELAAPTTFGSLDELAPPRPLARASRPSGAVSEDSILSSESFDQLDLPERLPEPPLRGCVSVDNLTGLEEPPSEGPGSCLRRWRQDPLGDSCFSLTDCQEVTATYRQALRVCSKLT

Activated CDC42 kinase 1 = Activated CDC42 kinase 1 (Homo sapiens, UniProt Q07912)
Sequence of Activated CDC42 kinase 1 (Q07912 whole entry): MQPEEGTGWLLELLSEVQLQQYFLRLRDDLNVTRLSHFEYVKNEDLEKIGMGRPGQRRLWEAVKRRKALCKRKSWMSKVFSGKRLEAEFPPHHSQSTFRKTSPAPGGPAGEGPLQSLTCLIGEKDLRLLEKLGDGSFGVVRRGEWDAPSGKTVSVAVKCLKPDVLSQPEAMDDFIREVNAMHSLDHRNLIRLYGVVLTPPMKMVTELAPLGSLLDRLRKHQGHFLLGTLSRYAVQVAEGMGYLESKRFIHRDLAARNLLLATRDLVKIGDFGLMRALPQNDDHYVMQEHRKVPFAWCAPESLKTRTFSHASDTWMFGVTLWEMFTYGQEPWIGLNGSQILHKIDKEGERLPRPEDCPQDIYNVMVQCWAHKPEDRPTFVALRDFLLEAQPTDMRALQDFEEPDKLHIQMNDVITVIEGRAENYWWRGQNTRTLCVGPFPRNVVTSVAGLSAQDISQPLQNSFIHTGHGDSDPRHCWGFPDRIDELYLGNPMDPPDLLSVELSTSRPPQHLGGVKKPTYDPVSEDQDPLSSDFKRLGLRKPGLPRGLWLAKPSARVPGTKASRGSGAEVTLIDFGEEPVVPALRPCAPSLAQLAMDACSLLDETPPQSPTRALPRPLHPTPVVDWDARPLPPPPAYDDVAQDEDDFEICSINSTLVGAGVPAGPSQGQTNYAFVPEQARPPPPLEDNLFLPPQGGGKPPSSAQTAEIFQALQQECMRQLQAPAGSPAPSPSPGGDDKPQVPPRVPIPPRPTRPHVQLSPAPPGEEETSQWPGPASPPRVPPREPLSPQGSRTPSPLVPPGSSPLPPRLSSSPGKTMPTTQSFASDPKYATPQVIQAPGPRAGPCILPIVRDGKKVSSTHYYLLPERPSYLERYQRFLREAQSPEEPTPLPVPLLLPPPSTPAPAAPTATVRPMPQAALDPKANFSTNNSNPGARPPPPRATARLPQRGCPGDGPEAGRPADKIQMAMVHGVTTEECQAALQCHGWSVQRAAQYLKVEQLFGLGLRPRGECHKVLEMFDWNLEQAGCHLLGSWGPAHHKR
Note: in the data inactive means no Kd found up to 30 µM.

Kd [1] | Kd [2] | Kd [3] | Kd [4] | Kd [5] | Kd [6] | Kd [7] | Kd [8] | Kd [9] | Kd (Deoxycytidine kinase) | Kd [10] | Kd [11] | Kd [12] | Kd [13] | Kd [14] | Kd [16] | Kd [17] | Kd [18] | Kd (Activated CDC42 kinase 1) | Structure (SMILES) | Kd [15]
> 30 µM (inactive) | > 30 µM (inactive) | > 30 µM (inactive) | > 30 µM (inactive) | > 30 µM (inactive) | > 30 µM (inactive) | > 30 µM (inactive) | > 30 µM (inactive) | 1.44 µM (active) | > 30 µM (inactive) | 0.551 µM (active) | > 30 µM (inactive) | > 30 µM (inactive) | 0.184 µM | 0.008 µM (active) | > 30 µM (inactive) | 0.009 µM (active) | > 30 µM (inactive) | 0.076 µM (active) | CC(C)c1cc(CNc2nc(Nc3cc(C4CC4)[nH]n3)cc(N3CCN(C)CC3)n2)on1 [XL-228] | > 30 µM (inactive)
> 30 µM (inactive) | > 30 µM (inactive) | 2.38 µM (active) | > 30 µM (inactive) | > 30 µM (inactive) | > 30 µM (inactive) | > 30 µM (inactive) | > 30 µM (inactive) | 0.473 µM (active) | > 30 µM (inactive) | 5.09 µM (active) | > 30 µM (inactive) | > 30 µM (inactive) | > 30 µM (inactive) | > 30 µM (inactive) | > 30 µM (inactive) | > 30 µM (inactive) | > 30 µM (inactive) | > 30 µM (inactive) | CN1C/C=C/CCOc2cccc(c2)-c2ccnc(n2)Nc2cccc(c2)C1 [ZOTIRACICLIB] | 1.07 µM (active)
